For test [1], the target named is recombinant human Mcl-1 (residues 171-327) / Bim interaction (Homo sapiens (Human), UniProt Q07820). The test is described as follows: biochemical. The format is binding. Particulars: read-out: Mcl-1 HTRF IC50.
Test [2] relates to human multiple myeloma cell line, OPM-2. The test is described as follows: Cell viability assay (OPM-2 10 FBS), CellTiter-Glo. The format is cell-based. Particulars: Homo sapiens, OPM-2, 16 h. A digest of the protocol:
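Serially diluted test compounds are incubated 16 h with cells (3000/well) in RPMI 1640 supplemented with 10% FBS. Viability is then measured by luminescence and IC50 calculated by 4-parameter logistic fit.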

[3] abbreviates: TR-FRET, Mcl-1(171-327) / biotin-Bim (51-76).
Setting [4] is: read-out: OPM-2 10% FBS IC50 IP, OPM-2 cells, 10% FBS, 16 h, CellTiter-Glo.
[5] abbreviates: 0.1 nM Mcl-1(171-327), 0.05 nM biotin-Bim (51-76).
Setting [6] is: read-out: OPM-2 10% FBS IC50 IP, OPM-2 cells, 10% FBS, 16 h incubation.

Read-outs that look alike come from different tables or passages of the source.

recombinant human Mcl-1 (residues 171-327) / Bim interaction, sequence (Q07820 171-327): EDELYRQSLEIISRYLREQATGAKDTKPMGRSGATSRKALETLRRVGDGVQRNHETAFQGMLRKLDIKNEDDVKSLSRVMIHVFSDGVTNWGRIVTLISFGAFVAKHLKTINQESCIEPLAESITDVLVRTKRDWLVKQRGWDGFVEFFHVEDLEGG

As for `C[C@@H]1[C@@H](C)C/C=C/C(O)(Cc2nccn2C)[C@@H]2CC[C@H]2CN2C[C@@]3(CCCc4cc(Cl)ccc43)COc3ccc(cc32)C(=O)NS1(=O)=O` (stereo in doubt) [Example 100524, (1S,3′R,6′R,7′R,8′E,11′S,12′R)-6-chloro-7′-hydroxy-11′,12′-dimethyl-7′-((1-methyl-1H-imidazol-2-yl)methyl)-3,4-dihydro-2H,15′H-spiro[naphthalene-1,22′-[20]oxa[13]thia[1,14]diazatetracyclo [14.7.2.0~3,6~.0~19,24~]pentacosa[8,16,18,24]tetraen]-15′-one 13′,13′-dioxide], the IC50 in test [1] (setting [3]) came out at 0.99 nM; in test [2] (setting [4]) it was 842 nM.
Regarding `CO[C@]1(CN2CCN(C(C)(C)C)CC2)/C=C/C[C@H](C)[C@@H](C)S(=O)(=O)NC(=O)c2ccc3c(c2)N(C[C@@H]2CC[C@H]21)C[C@@]1(CCCc2cc(Cl)ccc21)CO3` [Example 307, (1S,3′R,6′R,7′R,8′E,11′S,12′R)-7′-((4-tert-butyl-1-piperazinyl)methyl)-6-chloro-7′-methoxy-11′,12′-dimethyl-3,4-dihydro-2H,15′H-spiro[naphthalene-1,22′-[20]oxa[13]thia[1,14]diazatetracyclo [14.7.2.0~3,6~.0~19,24~]pentacosa[8,16,18,24]tetraen]-15′-one 13′,13′-dioxide], the IC50 is 0.087 nM in test [1] (setting [5]) and 41 nM in test [2] (setting [6]).
`COCC(COC)N1CCN(C[C@]2(OC)/C=C/C[C@H](C)[C@@H](C)S(=O)(=O)NC(=O)c3ccc4c(n3)N(C[C@@H]3CC[C@H]32)C[C@@]2(CCCc3cc(Cl)ccc32)CO4)CC1` [Example 371, (1S,3′R,6′R,7′S,8′E,11′S,12′R)-6-chloro-7′-methoxy-7′-((4-(2-methoxy-1-(methoxymethyl)ethyl)-1-piperazinyl)methyl)-11′,12′-dimethyl-3,4-dihydro-2H,15′H-spiro[naphthalene1,22′-[20]oxa[13]thia[1,14,25]triazatetracyclo [14.7.2.0~3,6~.0~19,24~]pentacosa[8,16,18,24]tetraen]-15′-one 13′,13′-dioxide]: the IC50 in test [1] (setting [5]) turned out to be 0.101 nM; in test [2] (setting [6]) it was 43 nM.
In the case of `COCCC[C@]1(O)/C=C/C[C@H](C)[C@@H](C)S(=O)(=O)NC(=O)c2ccc3c(c2)N(C[C@@H]2CC[C@H]21)C[C@@]1(CCCc2cc(Cl)ccc21)CO3` [Example 100160, (1S,3′R,6′R,7′S,8′E,11′S,12′R)-6-chloro-7′-hydroxy-7′-(3-methoxypropyl)-11′,12′-dimethyl-3,4-dihydro-2H,15′H-spiro[naphthalene-1,22′-[20]oxa[13]thia[1,14]diazatetracyclo [14.7.2.0~3,6~.0~19,24~]pentacosa[8,16,18,24]tetraen]-15′-one 13′,13′-dioxide], the IC50 worked out at 0.169 nM in test [1] (setting [3]) and 78 nM in test [2] (setting [4]).
The matching figures for `C[C@@H]1[C@@H](C)CCC[C@@](O)(Cc2ncccn2)[C@@H]2CC[C@H]2CN2C[C@@]3(CCCc4cc(Cl)ccc43)COc3ccc(cc32)C(=O)NS1(=O)=O` [Example 100146, (1S,3′R,6′R,7′R,11′S,12′R)-6-chloro-7′-hydroxy-11′,12′-dimethyl-7′-(2-pyrimidinylmethyl)-3,4-dihydro-2H,15′H-spiro[naphthalene-1,22′-[20]oxa[13]thia[1,14]diazatetracyclo [14.7.2.0~3,6~.0~19,24~]pentacosa[16,18,24]trien]-15′-one 13′,13′-dioxide]: 0.515 nM and 347 nM.
For `CO[C@]1(CN2CCN(Cc3cscn3)CC2)/C=C/C[C@H](C)[C@@H](C)S(=O)(=O)NC(=O)c2ccc3c(c2)N(C[C@@H]2CC[C@H]21)C[C@@]1(CCCc2cc(Cl)ccc21)CO3` [Example 72, (1S,3′R,6′R,7′R,8′E,11′S,12′R)-6-chloro-7′-methoxy-11′,12′-dimethyl-7′-((4-(1,3-thiazol-4-ylmethyl)-1-piperazinyl)methyl)-3,4-dihydro-2H,15′H-spiro[naphthalene-1,22′-[20]oxa[13]thia[1,14]diazatetracyclo [14.7.2.0~3,6~.0~19,24~]pentacosa[8,16,18,24]tetraen]-15′-one 13′,13′-dioxide], the concentration for half-maximal inhibition (IC50) in test [1] (setting [5]) came to 0.8 nM; in test [2] (setting [6]), 185 nM.

(Values after patent US10821115B2, “Compounds that inhibit Mcl-1 protein” (priority 2017, dated 2020).)
